Results on 1 molecule are retold here after patent US11628179B2, “Compounds for treating and preventing extracellular histone mediated pathologies” (priority 2017, dated 2023).

Structures can show the parent of a compound that is named as a salt.

Data set [1] can be described thus: mCBS vs CBS levels in bulk powder stored at −20° C. (CAD). In kind it is physicochemical. The protocol:
Table 2b compares mCBS vs CBS levels in a representative batch of bulk powder when stored at −20° C. over 24 months. T is for time in months. T=0 or T0 represents analytical results carried out on completion of manufacture. Subsequent analysis indicated are relative to the initial analysis of the drug powder or formulation (e.g. […] Analytical method employing CAD (Charged Aerosol Detector) was used to measure the level of mCBS purity and its impurities and expressed as CAD %.

Data set [2] can be described thus: Stability of mCBS vs CBS in formulated clinical material (HPLC). The data set is classed as physicochemical. To be noted: formulated clinical material in phosphate buffer, 5±3° C., 25±2° C./60% RH, 40±2° C./75% RH. On the procedure:
Stability studies were carried out at 5±3° C., 25±2° C./60% RH and 40±2° C./75% RH ° C. conditions. Levels of both mCBS and cellobiose sulfate (CBS) were tracked in formulated clinical material (i.e. mCBS in phosphate buffer) via HPLC.

Regarding `CO[C@@H]1O[C@H](COS(=O)(=O)O)[C@@H](O[C@@H]2O[C@H](COS(=O)(=O)O)[C@@H](OS(=O)(=O)O)[C@H](OS(=O)(=O)O)[C@H]2OS(=O)(=O)O)[C@H](OS(=O)(=O)O)[C@H]1OS(=O)(=O)O` [mCBS, β-O-methyl cellobioside sulfate], in data set [1] (24 months), the “stability when stored in powder” value is given as “high stability”. The “level in bulk powder” value is reported as 98.56 CAD % in data set [1] (T0 (months)); 98.45 CAD % in data set [1] (T1); 98.28 CAD % in data set [1] (T3); 98.22 CAD % in data set [1] (T6); 97.77 CAD % in data set [1] (T9); 98.00 CAD % in data set [1] (T12). For the same molecule, the “level in bulk powder” value is recorded as 97.94 CAD % in data set [1] (T18) and 98.26 CAD % in data set [1] (T24). Also, the “level relative to starting amount (T=0) over time” value in data set [2] is listed as “very stable”.
